This is an account of results in patent US20230257364A1, “PYRIDAZINONE-BASED COMPOUNDS AS AXL, C-MET, AND MER INHIBITORS AND METHODS OF USE THEREOF” (CMG Pharmaceutical Co., Ltd., priority 2022, published 2023).

Like-named read-outs stand apart in the source and are kept apart here.

Format in all cases: biochemical
In one test the target is T1, AXL (Homo sapiens, UniProt P30530).
T1 sequence (P30530 26-894): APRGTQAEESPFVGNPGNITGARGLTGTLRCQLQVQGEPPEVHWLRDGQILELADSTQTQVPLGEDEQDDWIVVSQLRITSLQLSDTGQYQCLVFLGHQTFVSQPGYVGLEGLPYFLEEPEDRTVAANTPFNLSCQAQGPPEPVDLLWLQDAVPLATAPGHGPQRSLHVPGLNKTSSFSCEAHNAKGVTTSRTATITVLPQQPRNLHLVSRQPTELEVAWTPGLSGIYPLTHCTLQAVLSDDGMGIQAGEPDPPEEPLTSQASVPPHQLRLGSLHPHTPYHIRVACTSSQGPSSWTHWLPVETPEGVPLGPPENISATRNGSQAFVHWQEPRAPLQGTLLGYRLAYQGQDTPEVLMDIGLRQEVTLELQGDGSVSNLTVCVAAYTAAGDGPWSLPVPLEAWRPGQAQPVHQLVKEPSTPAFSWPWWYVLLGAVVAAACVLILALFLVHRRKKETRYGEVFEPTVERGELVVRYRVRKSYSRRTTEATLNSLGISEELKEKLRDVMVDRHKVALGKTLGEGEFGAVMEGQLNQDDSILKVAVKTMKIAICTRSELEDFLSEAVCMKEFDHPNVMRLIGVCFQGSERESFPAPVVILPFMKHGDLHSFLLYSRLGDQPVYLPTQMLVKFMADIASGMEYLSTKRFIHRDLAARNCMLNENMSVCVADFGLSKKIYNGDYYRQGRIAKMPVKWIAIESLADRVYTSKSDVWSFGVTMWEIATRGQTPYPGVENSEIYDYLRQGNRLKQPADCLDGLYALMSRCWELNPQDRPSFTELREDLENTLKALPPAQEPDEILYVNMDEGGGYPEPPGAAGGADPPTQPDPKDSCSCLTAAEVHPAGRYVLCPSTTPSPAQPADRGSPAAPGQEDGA
Nature of the test: Enzymatic kinase assay (ADP-GLO), AXL. The settings on record: 10 μM ATP, poly (Glu4, Tyr1) substrate, 60 min room temperature, luminescence. Here is the method:
(§1) This example illustrates an enzymatic assay to determine the inhibitory activity of exemplary compounds of Formula (I) in an aspect of the invention.
(§2) All the kinase reactions were performed in 5 μL using tyrosine kinase buffer with 0.2 μg/μL poly (Glu4, Tyr1) substrate, 10 μM ATP, serial dilution of the inhibitor, and incubated at room temperature for 60 min. After the indicated incubation times, 5 μL ADP-GLO™ reagent (Promega, Madison, Wis.) was added to the reactions and the plate was incubated at room temperature for 40 min. Then, 10 μL of kinase detection reagent was added and after an incubation time of 40 min, luminescence was recorded and IC50 values were determined (Table 1). All 384-well assay plates were read using a GLOMAX™ Discover Microplate Luminometer from Promega (Madison, Wis.). To plot, analyze the data and calculate all kinase reaction biochemical values, both Microsoft Excel and Prism from GraphPad 7 Software (La Jolla, Calif.) were used.

In another test the target is C-MET (Homo sapiens, UniProt P08581). Nature of the test: Enzymatic kinase assay (ADP-GLO), C-MET. The procedure:
as §1
as §2, with “Then, 10 μL of kinase detection reagent was added and after an incubation time of 40 min, luminescence was recorded and IC50 values were determined (Table 1).” left out

The target in another test is T2, MER (Homo sapiens, UniProt Q12866).
T2 sequence (Q12866 21-999): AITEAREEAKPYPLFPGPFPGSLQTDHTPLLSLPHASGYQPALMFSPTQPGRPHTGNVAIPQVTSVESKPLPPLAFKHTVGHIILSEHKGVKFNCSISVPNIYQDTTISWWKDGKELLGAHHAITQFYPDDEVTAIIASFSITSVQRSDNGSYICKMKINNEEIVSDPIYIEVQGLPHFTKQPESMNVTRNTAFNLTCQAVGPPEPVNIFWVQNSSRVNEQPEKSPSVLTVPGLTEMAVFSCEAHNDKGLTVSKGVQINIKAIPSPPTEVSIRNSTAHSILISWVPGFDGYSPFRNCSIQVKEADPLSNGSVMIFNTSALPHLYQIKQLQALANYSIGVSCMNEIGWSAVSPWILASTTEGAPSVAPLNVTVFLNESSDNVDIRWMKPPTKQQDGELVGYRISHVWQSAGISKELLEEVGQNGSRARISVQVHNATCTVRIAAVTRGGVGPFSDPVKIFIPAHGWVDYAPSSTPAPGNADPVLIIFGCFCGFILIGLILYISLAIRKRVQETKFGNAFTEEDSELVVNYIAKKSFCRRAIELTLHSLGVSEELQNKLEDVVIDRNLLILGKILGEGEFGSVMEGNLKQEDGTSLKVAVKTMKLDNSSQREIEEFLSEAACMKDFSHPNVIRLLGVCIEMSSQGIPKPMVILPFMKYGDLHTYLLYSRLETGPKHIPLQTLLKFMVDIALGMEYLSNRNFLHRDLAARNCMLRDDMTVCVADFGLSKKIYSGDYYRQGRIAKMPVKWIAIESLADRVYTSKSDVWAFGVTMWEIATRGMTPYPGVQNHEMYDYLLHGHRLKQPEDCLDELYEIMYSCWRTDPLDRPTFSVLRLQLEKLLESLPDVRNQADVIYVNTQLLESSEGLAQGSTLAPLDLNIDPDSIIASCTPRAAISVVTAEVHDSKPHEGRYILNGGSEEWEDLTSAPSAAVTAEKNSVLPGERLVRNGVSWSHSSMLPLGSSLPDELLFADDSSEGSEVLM
Nature of the test: Enzymatic kinase assay (ADP-GLO), MER. The settings on record: 10 μM ATP, poly (Glu4, Tyr1) substrate, 60 min room temperature, luminescence. The procedure:
as §1, §2

Setting [1] is: 10 μM ATP, poly (Glu4, Tyr1) substrate, 60 min room temperature, luminescence, read-out: Enzymatic assay IC50 (nM) C-MET.

Chain of C-MET (P08581 25-1390): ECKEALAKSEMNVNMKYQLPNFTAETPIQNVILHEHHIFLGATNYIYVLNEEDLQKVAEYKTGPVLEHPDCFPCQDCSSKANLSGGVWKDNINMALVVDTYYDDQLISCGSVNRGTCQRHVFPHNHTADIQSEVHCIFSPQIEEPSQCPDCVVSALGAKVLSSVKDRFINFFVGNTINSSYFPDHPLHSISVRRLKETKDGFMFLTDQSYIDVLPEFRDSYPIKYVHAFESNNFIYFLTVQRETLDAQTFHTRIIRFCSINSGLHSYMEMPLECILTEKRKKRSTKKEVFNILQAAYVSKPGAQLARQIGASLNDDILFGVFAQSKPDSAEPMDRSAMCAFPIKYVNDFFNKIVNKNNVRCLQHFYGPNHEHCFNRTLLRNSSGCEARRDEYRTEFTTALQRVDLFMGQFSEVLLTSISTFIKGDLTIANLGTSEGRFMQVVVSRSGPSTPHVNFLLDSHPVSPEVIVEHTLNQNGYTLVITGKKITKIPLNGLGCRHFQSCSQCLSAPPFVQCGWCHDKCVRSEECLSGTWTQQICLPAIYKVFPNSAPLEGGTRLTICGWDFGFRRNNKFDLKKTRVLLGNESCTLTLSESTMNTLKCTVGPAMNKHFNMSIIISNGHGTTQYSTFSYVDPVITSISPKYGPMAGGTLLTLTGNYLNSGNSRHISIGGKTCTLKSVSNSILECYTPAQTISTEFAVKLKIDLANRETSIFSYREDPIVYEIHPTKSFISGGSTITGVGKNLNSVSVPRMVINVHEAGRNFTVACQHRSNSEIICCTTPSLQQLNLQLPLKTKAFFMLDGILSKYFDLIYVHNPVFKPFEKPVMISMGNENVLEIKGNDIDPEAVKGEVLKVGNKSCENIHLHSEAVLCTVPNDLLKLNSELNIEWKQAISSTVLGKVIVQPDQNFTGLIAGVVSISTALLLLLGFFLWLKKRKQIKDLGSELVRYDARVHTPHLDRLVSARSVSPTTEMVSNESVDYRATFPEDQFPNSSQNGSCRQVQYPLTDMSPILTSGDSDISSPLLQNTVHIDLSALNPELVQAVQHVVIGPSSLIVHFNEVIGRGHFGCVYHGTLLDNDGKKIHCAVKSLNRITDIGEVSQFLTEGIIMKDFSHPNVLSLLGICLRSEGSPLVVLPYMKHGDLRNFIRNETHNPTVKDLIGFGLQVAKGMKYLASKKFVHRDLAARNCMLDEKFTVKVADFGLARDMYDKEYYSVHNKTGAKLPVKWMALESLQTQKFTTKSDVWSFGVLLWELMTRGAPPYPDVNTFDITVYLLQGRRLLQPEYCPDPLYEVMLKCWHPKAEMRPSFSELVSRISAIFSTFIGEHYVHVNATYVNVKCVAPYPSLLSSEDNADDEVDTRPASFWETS

For `Nc1nccc(Oc2ccc(NC(=O)c3cccn(-c4ccc(F)cc4)c3=O)cc2F)c1C#CC(=O)N1CCNCC1` [Example 15, N-(4-(2-amino-3-(3-oxo-3-(piperazin-1-yl)prop-1-ynyl)pyridin-4-yloxy)-3-fluorophenyl)-1-(4-fluorophenyl)-2-oxo-1,2-dihydropyridine-3-carboxamide], the concentration for half-maximal inhibition (IC50) against AXL, on C-MET (setting [1]) and against MER was less than 100 nM in each case.

Take `Nc1nccc(Oc2ccc(NC(=O)c3ccnn(-c4ccc(F)cc4)c3=O)cc2F)c1-c1ccc(Oc2ccccc2)cc1` [Example 20, N-(4-(2-amino-3-(4-phenoxyphenyl)pyridin-4-yloxy)-3-fluorophenyl)-2-4-(fluorophenyl)-3-oxo-2,3-dihydropyridazine-4-carboxamide]: the IC50 against AXL is less than 1000 nM; at C-MET (setting [1]) it was greater than 1000 nM; against MER, less than 1000 nM.

Take `CCCn1cc(-c2c(Oc3ccc(NC(=O)c4ccnn(-c5ccc(F)cc5)c4=O)cc3F)ccnc2N)cn1` [Example 21, N-(4-(2-amino-3-(1-propyl-1H-pyrazol-4-yl)pyridin-4-yloxy)-3-fluorophenyl)-2-(4-fluorophenyl)-3-oxo-2,3-dihydropyridazine-4-carboxamide]: the IC50 at AXL was less than 10 nM; at C-MET (setting [1]), greater than 1000 nM; against MER, less than 100 nM.

Take `CC(C)(C#Cc1c(Oc2ccc(NC(=O)c3ccnn(-c4ccc(F)cc4)c3=O)cc2F)ccnc1N)N1CCNCC1` [Example 22, N-(4-(2-amino-3-(3-methyl-3-(piperazin-1-yl)but-1-ynyl)pyridin-4-yloxy)-3-fluorophenyl)-2-(4-fluorophenyl)-3-oxo-2,3-dihydropyridazine-4-carboxamide]: the IC50 on AXL is less than 10 nM; on C-MET (setting [1]) it was less than 100 nM; against MER, less than 100 nM.

In the case of `COCCN1CCN(C(C)(C)C#Cc2c(Oc3ccc(NC(=O)c4ccnn(-c5ccc(F)cc5)c4=O)cc3F)ccnc2N)CC1` [Example 23, N-(4-(2-amino-3-(3-(4-(2-methoxyethyl)piperazin-1-yl)-3-methylbut-1-ynyl)pyridine-4-yloxy)-3-fluorophenyl)-2-(4-fluorophenyl)-3-oxo-2,3-dihydropyridazine-4-carboxamide], the IC50 on AXL was less than 10 nM; on C-MET (setting [1]), less than 100 nM; against MER, less than 100 nM.

Turning to `COCCN1CCN(CC#Cc2c(Oc3ccc(NC(=O)c4ccnn(-c5ccc(F)cc5)c4=O)cc3F)ccnc2N)CC1` [Example 24], the IC50 against AXL was less than 10 nM; at C-MET (setting [1]) it was less than 100 nM; against MER it was less than 10 nM.

For the compound `Nc1nccc(Oc2ccc(NC(=O)c3ccnn(-c4ccc(F)cc4)c3=O)cc2F)c1C#CC1CCNCC1` [Example 25, N-(4-(2-amino-3-(piperidin-4-ylethynyl)pyridine-4-yloxy)-3-fluorophenyl)-2-(4-fluorophenyl)-3-oxo-2,3-dihydropyridazine-4-carboxamide], the half-inhibitory concentration (IC50) against AXL is less than 10 nM; at C-MET (setting [1]) it was less than 10 nM; against MER it was greater than 1000 nM.

For `CN1CCC(C#Cc2c(Oc3ccc(NC(=O)c4ccnn(-c5ccc(F)cc5)c4=O)cc3F)ccnc2N)CC1` [Example 26, N-(4-(2-amino-3-((1-methylpiperidin-4-yl)ethynyl)pyridin-4-yloxy)-3-fluorophenyl)-2-(4-fluorophenyl)-3-oxo-2,3-dihydropyridazine-4-carboxamide], the values for the IC50 against AXL, on C-MET (setting [1]) and against MER were less than 10 nM, less than 10 nM and greater than 1000 nM, respectively.

Regarding `COCCN1CCC(C#Cc2c(Oc3ccc(NC(=O)c4ccnn(-c5ccc(F)cc5)c4=O)cc3F)ccnc2N)CC1` [Example 27, N-(4-(2-amino-3-((1-(2-methoxyethyl)piperidin-4-yl)ethynyl)pyridin-4-yloxy)-3-fluorophenyl)-2-(4-fluorophenyl)-3-oxo-2,3-dihydropyridazine-4-carboxamide], the IC50 on AXL, at C-MET (setting [1]) and on MER was less than 10 nM in each case.

Turning to `CC(C)(C#Cc1c(Oc2ccc(NC(=O)c3ccnn(-c4ccc(F)cc4)c3=O)cc2F)ccnc1N)N1CCOCC1` [Example 28, N-(4-(2-amino-3-(3-methyl-3-morpholinobut-1-ynl)pyridin-4-yloxy)-3-fluorophenyl)-2-(4-fluorophenyl)-3-oxo-2,3-dihydropyridazine-4-carboxamide], the half-inhibitory concentration (IC50) against AXL was less than 10 nM; at C-MET (setting [1]), less than 10 nM; against MER, less than 100 nM.

As to `CN1CCN(CC#Cc2c(Oc3ccc(NC(=O)c4ccnn(-c5ccc(F)cc5)c4=O)cc3F)ccnc2N)CC1` [Example 29, N-(4-(2-amino-3-(3-(4-methylpiperazin-1-yl)prop-1-ynyl)pyridin-4-yloxy)-3-fluorophenyl)-2-(4-fluorophenyl)-3-oxo-2,3-dihydropyridazine-4-carboxamide], the half-inhibitory concentration (IC50) against AXL, at C-MET (setting [1]) and at MER was less than 10 nM throughout.

With `Nc1nccc(Oc2ccc(NC(=O)c3ccnn(-c4ccc(F)cc4)c3=O)cc2F)c1C#CCC1CCNCC1` [Example 30, N-(4-(2-amino-3-(3-(piperidin-4-yl)prop-1-ynyl)pyridin-4-yloxy)-3-fluorophenyl)-2-(4-fluorophenyl)-3-oxo-2,3-dihydropyridazine-4-carboxamide], the IC50 on AXL, at C-MET and at MER was less than 10 nM throughout.

As for `COCCN1CCC(CC#Cc2c(Oc3ccc(NC(=O)c4ccnn(-c5ccc(F)cc5)c4=O)cc3F)ccnc2N)CC1` [Example 31, N-(4-(2-amino-3-(3-(1-(2-methoxyethyl)piperidin-4-yl)prop-1-ynyl)pyridin-4-yloxy)-3-fluorophenyl)-2-(4-fluorophenyl)-3-oxo-2,3-dihydropyridazine-4-carboxamide], the figures for the half-inhibitory concentration (IC50) at AXL, at C-MET (setting [1]) and on MER were less than 100 nM, less than 10 nM and less than 100 nM, respectively.
